Results: ChEMBL document CHEMBL5338738, “Discovery of Novel Sesquiterpene Lactone Derivatives as Potent PKM2 Activators for the Treatment of Ulcerative Colitis” (J Med Chem, 2023)
Calls of active or inactive are those of the source. The rule behind the calls is not given here.

Experiments:
CD4+ve Th [1] = experiment: (§1) Inhibition of Th17 cells differentiation in anti-CD3/CD28 stimulated C57BL/6 mouse mesenteric lymph node CD4+ve Th cells assessed as decrease in PKM2 expression in nucleus at 0.1 to 3 uM incubated for 96 hrs in presence of recombinant human TGF-beta, recombinant mouse IL-6 and recombinant mouse IL-23 by Western blot analysis; assay type: functional, cell-based; conditions: dose 0.1-3 µM
Mus musculus [2] = experiment: Anti-colitis activity against DSS-induced ulcerative colitis C57BL/6 mouse model assessed as downregulation of IL10 mRNA expression level in spleen at 6.25 to 25 mg/kg, po for 10 days consecutively by qPCR assay; assay type: functional, organism-based; conditions: dose 6.25-25 mg/kg, time 10.0 day
Mus musculus [3] = experiment: Anti-colitis activity against DSS-induced ulcerative colitis C57BL/6 mouse model assessed as decrease in MPO level in colon at 12.5 to 25 mg/kg, po for 10 days consecutively; assay type: functional, organism-based; conditions: dose 12.5-25 mg/kg, time 10.0 day
[4] = biological target: Pyruvate kinase PKM (Mus musculus) (UniProt P52480); experiment: Binding affinity to PKM2 in C57BL/6 mouse mesenteric lymph node CD4+ve Th cells assessed as increase in denaturation temperature at 3 uM incubated for 4 hrs by Solvent-induced protein precipitation analysis; assay type: tissue-based; conditions: filed as activator
[5] = AUCt in Sprague-Dawley rat at 75 mg/kg,po and measured upto 24 hrs by LC-MS/MS analysis; assay type: ADME, organism-based; set-up: time < 24 hrs, dose 75 mg/kg, route po; conditions: in vivo
CD4+ve Th [6] = experiment: (§2) Inhibition of aerobic glycolysis in anti-CD3/CD28 stimulated C57BL/6 mouse mesenteric lymph node CD4+ve Th cells assessed as reduction in glucose utilization by measuring glucose level at 0.3 to 3 uM incubated for 96 hrs in presence of recombinant human TGF-beta, recombinant mouse IL-6 and recombinant mouse IL-23 by colorimetric analysis; assay type: functional, cell-based; conditions: dose 0.3-3 µM
[7] = Inhibition of Treg cells differentiation in anti-CD3/CD28 stimulated C57BL/6 mouse mesenteric lymph node CD4+ve Th cells assessed as decrease in proportion of Foxp3-positive Treg cells at 0.1 uM incubated for 96 hrs in presence of recombinant human TGF-beta by flow cytometry (Rvb= 21.1%); assay type: functional; conditions: C57BL/6, CD4+ve Th
Mus musculus [8] = experiment: Anti-colitis activity against DSS-induced ulcerative colitis C57BL/6 mouse model assessed as downregulation of IL17a mRNA expression level in colon at 12.5 to 25 mg/kg, po for 10 days consecutively by qPCR assay; assay type: functional, organism-based; conditions: dose 12.5-25 mg/kg, time 10.0 day
CD4+ve Th [9] = experiment: as §1, with “increase” for “decrease”, “tetramer formation” for “expression in nucleus”; assay type: functional, cell-based; conditions: dose 0.1-3 µM
Mus musculus [10] = experiment: Anti-colitis activity against DSS-induced ulcerative colitis C57BL/6 mouse model assessed as downregulation of IL10 mRNA expression level in colon at 6.25 to 25 mg/kg, po for 10 days consecutively by qPCR assay; assay type: functional, organism-based; conditions: dose 6.25-25 mg/kg, time 10.0 day
[11] = Toxicity in C57BL/6 mouse assessed as histological change in heart at 6.25 to 25 mg/kg, po for 10 days consecutively by H and E staining based microscopy; assay type: organism-based; conditions: in vivo, 240 h, dose 6.25-25 mg/kg, time 10 day
Mus musculus [12] = experiment: Anti-colitis activity against DSS-induced ulcerative colitis C57BL/6 mouse model assessed as downregulation of RORC mRNA expression level in mesenteric lymph nodes at 12.5 to 25 mg/kg, po for 10 days consecutively by qPCR assay; assay type: functional, organism-based; conditions: dose 12.5-25 mg/kg, time 10.0 day
[13] = biological target: Pyruvate kinase PKM (Mus musculus) (UniProt P52480); experiment: Binding affinity to PKM2 in C57BL/6 mouse mesenteric lymph node CD4+ve Th cells assessed as increase in denaturation temperature at 3 uM incubated for 4 hrs by […] analysis; conditions: filed as activator
CD4+ve Th [14] = experiment: as §2, with “downregulation of Pfk1 mRNA expression” for “reduction in glucose utilization by measuring glucose”, “qPCR” for “colorimetric”; assay type: functional, cell-based; conditions: dose 0.3-3 µM
[15] = Protein binding in rat plasma assessed as bound fraction; assay type: ADME, cell-free; conditions: read-out: PPB (converted)
CD4+ve Th [16] = experiment: as §1, with “downregulation of IL17a mRNA” for “decrease in PKM2”, “level” for “in nucleus”, “qPCR” for “Western blot”; assay type: functional, cell-based; conditions: dose 0.1-3 µM
[17] = Toxicity in C57BL/6 mouse assessed as histological change in lung at 6.25 to 25 mg/kg, po for 10 days consecutively by H and E staining based microscopy; assay type: organism-based; conditions: in vivo, 240 h, dose 6.25-25 mg/kg, time 10 day
Mus musculus [18] = experiment: Anti-colitis activity against DSS-induced ulcerative colitis C57BL/6 mouse model assessed as reduction in inflammatory cell infiltration in colon at 12.5 to 25 mg/kg, po for 10 days consecutively by H and E staining based microscopic analysis; assay type: functional, organism-based; conditions: dose 12.5-25 mg/kg, time 10.0 day
Mus musculus [19] = experiment: Anti-colitis activity against DSS-induced ulcerative colitis C57BL/6 mouse model assessed as increase in colon length at 12.5 to 25 mg/kg, po for 10 days consecutively; assay type: functional, organism-based; conditions: dose 12.5-25 mg/kg, time 10.0 day
[20] = Volume of distribution in Sprague-Dawley rat at 8 mg/kg,iv and measured upto 24 hrs by LC-MS/MS analysis; assay type: ADME, organism-based; conditions: in vivo
Mus musculus [21] = experiment: Anti-colitis activity against DSS-induced ulcerative colitis C57BL/6 mouse model assessed as reduction in disease activity index (DAI) score at 12.5 to 25 mg/kg, po for 10 days consecutively; assay type: functional, organism-based; conditions: dose 12.5-25 mg/kg, time 10.0 day
[22] = Microsomal stability in rat liver microsomes assessed as half life; assay type: ADME, Microsome
CD4+ve Th [23] = experiment: as §2, with “decrease” for “reduction”, “ATP production” for “glucose utilization by measuring glucose level”, “assay” for “analysis”; assay type: functional, cell-based; conditions: dose 0.3-3 µM
Mus musculus [24] = experiment: Anti-colitis activity against DSS-induced ulcerative colitis C57BL/6 mouse model assessed as downregulation of IL17a mRNA expression level in spleen at 12.5 to 25 mg/kg, po for 10 days consecutively by qPCR assay; assay type: functional, organism-based; conditions: dose 12.5-25 mg/kg, time 10.0 day
Mus musculus [25] = experiment: Anti-colitis activity against DSS-induced ulcerative colitis C57BL/6 mouse model assessed as downregulation of RORC mRNA expression level in colon at 12.5 to 25 mg/kg, po for 10 days consecutively by qPCR assay; assay type: functional, organism-based; conditions: dose 12.5-25 mg/kg, time 10.0 day
Mus musculus [26] = experiment: Anti-colitis activity against DSS-induced ulcerative colitis C57BL/6 mouse model assessed as decrease in percentage of Th17 cells in colonic lamina propria at 12.5 to 25 mg/kg, po for 10 days consecutively by flow cytometry; assay type: functional, organism-based; conditions: dose 12.5-25 mg/kg, time 10.0 day
Mus musculus [27] = experiment: Anti-colitis activity against TNBS-induced ulcerative colitis BALB/c mouse model assessed as decrease in inflammatory injury by measuring MPO level at 12.5 to 25 mg/kg, po for consecutive 7 days; assay type: functional, organism-based; conditions: dose 12.5-25 mg/kg, time 7.0 day
CD4+ve Th [28] = experiment: Inhibition of Treg cells differentiation in anti-CD3/CD28 stimulated C57BL/6 mouse mesenteric lymph node CD4+ve Th cells assessed as change in Foxp3 mRNA expression level cells at 0.1 to 3 uM incubated for 96 hrs in presence of recombinant human TGF-beta by qPCR analysis; assay type: functional, cell-based; conditions: dose 0.1-3 µM
CD4+ve Th [29] = experiment: as §2, with “downregulation of Glut1 protein expression” for “reduction in glucose utilization by measuring glucose”, “Western blot” for “colorimetric”; assay type: functional, cell-based; conditions: dose 0.3-3 µM
Mus musculus [30] = experiment: Anti-colitis activity against DSS-induced ulcerative colitis C57BL/6 mouse model assessed as downregulation of IL10 mRNA expression level in mesenteric lymph nodes at 6.25 to 25 mg/kg, po for 10 days consecutively by qPCR assay; assay type: functional, organism-based; conditions: dose 6.25-25 mg/kg, time 10.0 day

Sequence of Pyruvate kinase PKM (Mus musculus) (P52480 whole entry): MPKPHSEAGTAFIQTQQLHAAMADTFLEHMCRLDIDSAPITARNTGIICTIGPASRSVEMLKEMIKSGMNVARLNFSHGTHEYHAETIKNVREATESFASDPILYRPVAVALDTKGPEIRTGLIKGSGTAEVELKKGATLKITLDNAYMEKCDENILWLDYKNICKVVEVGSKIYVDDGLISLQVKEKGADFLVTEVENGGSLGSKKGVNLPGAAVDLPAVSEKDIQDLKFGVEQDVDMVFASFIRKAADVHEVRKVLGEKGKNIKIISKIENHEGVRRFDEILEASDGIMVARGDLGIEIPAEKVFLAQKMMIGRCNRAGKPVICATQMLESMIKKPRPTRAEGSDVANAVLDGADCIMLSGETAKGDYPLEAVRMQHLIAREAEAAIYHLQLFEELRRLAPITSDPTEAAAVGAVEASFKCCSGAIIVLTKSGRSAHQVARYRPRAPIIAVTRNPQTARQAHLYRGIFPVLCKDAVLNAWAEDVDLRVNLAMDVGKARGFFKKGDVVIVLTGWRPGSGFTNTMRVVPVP

With `C=C1C(=O)O[C@H]2[C@H]1CC[C@@]1(C)[C@@H](CC[C@@]3(C)O[C@@H]23)C1(F)F` as the compound, how does the inhibition (CD4+ve Th [1]) read?
The inhibition was “Active”.

And the Activity (Mus musculus [2])?
Its Activity is “inactive”.

And the Activity (Mus musculus [3])?
Its Activity is “Active”.

And the Activity [4]?
Its Activity is “Active”.

What about the AUC(0-t) at 24 h [5] of the same compound?
Its AUC(0-t) at 24 h is 322 ng·h/mL.

What about the inhibition (CD4+ve Th [6]) of the same compound?
Its inhibition is “Active”.

What about the Foxp3+ cells at 0.1 µM [7] of the same compound?
The Foxp3+ cells at 0.1 µM was 20.3%.

What about the Activity (Mus musculus [8]) of the same compound?
The Activity was “Active”.

And the inhibition (CD4+ve Th [9])?
The inhibition was “Active”.

And the Activity (Mus musculus [10])?
The Activity was “inactive”.

And the Activity [11]?
Its Activity is “Non-Toxic”.

What about the Activity (Mus musculus [12]) of the same compound?
The Activity was “Active”.

What about the ΔTm [13] of the same compound?
Its ΔTm is 6 °C.

And the inhibition (CD4+ve Th [14])?
Its inhibition is “Active”.

And the fraction unbound [15]?
The fraction unbound was 0.201.

And the inhibition (CD4+ve Th [16])?
Its inhibition is “Active”.

What about the Activity [17] of the same compound?
The Activity was “Non-Toxic”.

And the Activity (Mus musculus [18])?
Its Activity is “Active”.

And the Activity (Mus musculus [19])?
The Activity was “Active”.

And the Vd [20]?
Its Vd is 17.6 L/kg.

And the Activity (Mus musculus [21])?
The Activity was “Active”.

And the half-life [22]?
The half-life was 12.6 min.

And the inhibition (CD4+ve Th [23])?
The inhibition was “Active”.

And the Activity (Mus musculus [24])?
Its Activity is “Active”.

And the Activity (Mus musculus [25])?
Its Activity is “Active”.

What about the Activity (Mus musculus [26]) of the same compound?
Its Activity is “Active”.

What about the Activity (Mus musculus [27]) of the same compound?
The Activity was “Active”.

What about the inhibition (CD4+ve Th [28]) of the same compound?
The inhibition was “inactive”.

And the inhibition (CD4+ve Th [29])?
The inhibition was “Active”.

And the Activity (Mus musculus [30])?
The Activity was “inactive”.
